≈ marks a conversion by molar mass, not a printed value.
Tests used:
[1] = tested on: COL wild-type; experiment: MIC by microdilution (CLSI); assay type: cell-based, Staphylococcus aureus; settings: Staphylococcus aureus, read-out: MICs
Text: (§1) The present invention was described based on a series of experiments examining the biological basis for CA-MRSA strains versus HA-MRSA strains, focusing on the role of PBPs in CA-MRSA and generally in β-lactam resistance. Experiments were first performed using mutants of various PBPs. In-frame deletion mutants of the genes encoding PBP3 (MW1504) and PBP4 (MW0604), pbp3 and pbp4 respectively, were generated in the CA-MRSA strain MW2 and in HA-MRSA strain COL using the temperature-sensitive allelic replacement vector pMAD (Arnaud, M. et al. 2004. Appl. Environ. Microbiol. 70:6887-6891). PBP4 was also deleted in the HA-MRSA strains Mu50 and N315 and in the CA-MRSA strain USA300. […] Minimum inhibitory concentrations (MICs) were determined according to the Clinical and Laboratory Standards Institute and are a standard method for defining antibiotic efficacy against different organisms. Bacteria, grown to an OD650=1, were added to cation-supplemented Mueller Hinton broth (CSMHB) to achieve a final concentration of 5×10^5 CFU/ml.
(§2) Although PBP4, similar to PBP2A, binds with low affinity to many β-lactams, PBP4 binds cefoxitin, a semi-synthetic β-lactam derived from cephamycin C, with high affinity (Nair, S. R. and C. E. Cherubin. 1978. Antimicrob. Agents Chemother. 14:866-875).
(§3) Minimum inhibitory concentrations and minimum bactericidal concentrations (MIC and MBC, respectively) were determined for each isolate in triplicate by microdilution techniques with an inoculum of 5×10^5 CFU/ml according to the Clinical and Laboratory Standards Institute guidelines. Aliquots (5 μl) from clear wells were plated onto TSA drug-free plates for the determination of MBCs, followed by incubation at 37° C. for 24 and 48 hours. For the mutant strains, each one of the three clones was tested. MIC data were reported as median values from at least three independent experiments for each antibiotic. Also, strains containing pEPSA5-based plasmids were tested with and without xylose induction, but chloramphenicol was not added to avoid interference with beta-lactam resistance evaluation. […] The correct inocula were confirmed by plating serial dilutions on agar.

[2] = tested on: MW2 (USA400) wild-type; experiment: MIC by microdilution (CLSI); assay type: cell-based, Staphylococcus aureus; settings: Staphylococcus aureus, USA400, read-out: MICs
Text: as §1, §2, §3

[3] = tested on: USA300 wild-type; experiment: MIC by microdilution (CLSI); assay type: cell-based, Staphylococcus aureus; settings: Staphylococcus aureus, USA300, read-out: MICs
Text: as §1, §2, §3

[4] = tested on: MW2 ex Δpbp4; experiment: MIC by microdilution (CLSI); assay type: cell-based, Staphylococcus aureus; settings: Staphylococcus aureus, read-out: MICs
Text: as §1, §3

[5] = tested on: MW2 Δpbp3/4; experiment: MIC by microdilution (CLSI); assay type: cell-based, Staphylococcus aureus; settings: Staphylococcus aureus, read-out: MICs
Text: as §1, §3

[6] = tested on: MW2 Δpbp3; experiment: MIC by microdilution (CLSI); assay type: cell-based, Staphylococcus aureus; settings: Staphylococcus aureus, read-out: MICs
Text: as §1, §3

[7] = tested on: MW2 Δpbp4::pbp4; experiment: MIC by microdilution (CLSI); assay type: cell-based, Staphylococcus aureus; settings: Staphylococcus aureus, read-out: MICs
Text: as §1, §3

[8] = tested on: MW2 Δpbp4; experiment: MIC by microdilution (CLSI); assay type: cell-based, Staphylococcus aureus
Text: as §1, §3

[9] = tested on: N315 wild-type; experiment: MIC by microdilution (CLSI); assay type: cell-based, Staphylococcus aureus; settings: Staphylococcus aureus, read-out: MICs
Text: as §1, §3

[10] = tested on: USA300 Δpbp4; experiment: MIC by microdilution (CLSI); assay type: cell-based, Staphylococcus aureus
Text: as §1, §3

[11] = tested on: MW2 ex (MW2 cured of plasmid pMW2); experiment: MIC by microdilution (CLSI); assay type: cell-based; settings: Staphylococcus aureus, Table 1
Text: as §1, with “Experiments” for “The present invention was described based on a series of experiments examining the biological basis for CA-MRSA strains versus HA-MRSA strains, focusing on the role of PBPs in CA-MRSA and generally in β-lactam resistance. Experiments”
as §3

[12] = tested on: MW2 ex Δpbp3; experiment: MIC by microdilution (CLSI); assay type: cell-based; settings: Staphylococcus aureus, read-out: MICs
Text: as §1, with “Experiments” for “The present invention was described based on a series of experiments examining the biological basis for CA-MRSA strains versus HA-MRSA strains, focusing on the role of PBPs in CA-MRSA and generally in β-lactam resistance. Experiments”
as §3

[13] = tested on: MW2 ex Δpbp3/4; experiment: MIC by microdilution (CLSI); assay type: cell-based, Staphylococcus aureus; settings: Staphylococcus aureus, read-out: MICs
Text: as §1, with “Experiments” for “The present invention was described based on a series of experiments examining the biological basis for CA-MRSA strains versus HA-MRSA strains, focusing on the role of PBPs in CA-MRSA and generally in β-lactam resistance. Experiments”
as §3

[14] = tested on: Mu50 wild-type; experiment: MIC by microdilution (CLSI); assay type: cell-based, Staphylococcus aureus; settings: Staphylococcus aureus, read-out: MICs
Text: as §1, with “Experiments” for “The present invention was described based on a series of experiments examining the biological basis for CA-MRSA strains versus HA-MRSA strains, focusing on the role of PBPs in CA-MRSA and generally in β-lactam resistance. Experiments”
as §3

[15] = tested on: CA- and HA-MRSA strains; experiment: Synergy assay, cefuroxime with two-fold dilutions of oxacillin; assay type: cell-based, Staphylococcus aureus; settings: in combination with two-fold dilutions of oxacillin
Procedure: as §3

[16] = tested on: PBP4; settings: cited from earlier work

| Compound | MIC [1] [mg/L] | MIC [2] [mg/L] | MIC [3] [mg/L] | MIC [4] [mg/L] | MIC [5] [mg/L] | MIC [6] [mg/L] | MIC [7] [mg/L] | MIC ([8]; Staphylococcus aureus, read-out: MICs) [mg/L] | reduction in MIC on loss of pbp4 ([8]; {}) [fold] | MIC [9] [mg/L] | MIC ([10]; Staphylococcus aureus, USA300, read-out: MICs) [mg/L] | reduction in MIC on loss of pbp4 ([10]; {}) [fold] | MIC [11] [mg/L] | MIC [12] [mg/L] | MIC [13] [mg/L] | MIC [14] [mg/L] | effect on oxacillin MICs [15] | affinity for PBP4 [16] |
| --- | --- | --- | --- | --- | --- | --- | --- | --- | --- | --- | --- | --- | --- | --- | --- | --- | --- | --- |
| CCOc1ccc2ccccc2c1C(=O)N[C@@H]1C(=O)N2[C@@H]1SC(C)(C)[C@@H]2C(=O)O [NF, nafcillin] | 64 (≈ 154 µM) | 16 (≈ 38.6 µM) | 16 (≈ 38.6 µM) | 1 (≈ 2.41 µM) | 1 (≈ 2.41 µM) | 16 (≈ 38.6 µM) | 16 (≈ 38.6 µM) | 1 (≈ 2.41 µM) | 16 | 64 (≈ 154 µM) | 1 (≈ 2.41 µM) | 16 | 16 (≈ 38.6 µM) | 16 (≈ 38.6 µM) | 1 (≈ 2.41 µM) | 256 (≈ 618 µM) |  |  |
| CO/N=C(\C(=O)N[C@@H]1C(=O)N2C(C(=O)O)=C(COC(N)=O)CS[C@H]12)c1ccco1 [Cefuroxime, cefuroxime] |  |  |  |  |  |  |  |  |  |  |  |  |  |  |  |  | no effect whatsoever | very low affinity |
| CN(C)CCn1nnnc1SCC1=C(C(=O)O)N2C(=O)[C@@H](NC(=O)Cc3csc(N)n3)[C@H]2SC1 [cefotiam] |  |  |  |  |  |  |  |  |  |  |  |  |  |  |  |  |  | no affinity |

Reference: US9427468B2, “Compositions and methods for diagnosing and treating community-acquired methicillin-resistant Staphylococcus aureus” (priority 2007, dated 2016)
